According to a compilation of properties of binary mixtures (doi:10.1016/j.molliq.2014.10.017):

Assay: xn = mol fraction of the nth substance listed
Conditions: 101 kPa

CCCC[n+]1ccn(C)c1.N#C[S-] + CC#N
speed of sound [m/s]
Conditions | 293.15 K | 298.15 K | 303.15 K | 308.15 K | 313.15 K
x2 = 0 | 1778.8 | 1767.2 | 1755.4 | 1743.7 | 1732.1
x2 = 0.0984 | 1764.8 | 1752.9 | 1740.8 | 1728.9 | 1717
x2 = 0.1936 | 1749.3 | – | 1724.7 | 1712.5 | 1700.3
x2 = 0.3061 | – | 1714.1 | 1701.4 | 1688.7 | 1676.1
x2 = 0.4068 | 1701.6 | 1688.5 | 1675.3 | 1662.1 | 1649
x2 = 0.4899 | – | 1662.5 | 1648.8 | 1635.2 | 1621.7
x2 = 0.5994 | 1633.3 | 1618.7 | 1604.2 | 1589.7 | 1575.4
x2 = 0.6925 | 1586.2 | 1571.2 | – | 1540.8 | 1525.7
x2 = 0.7988 | – | 1498.6 | – | 1465.7 | 1449.4
x2 = 0.8971 | 1426.5 | 1408.9 | 1391 | 1373.1 | 1355.2
x2 = 0.9465 | 1372.3 | 1353.6 | 1334.8 | 1316 | 1297.2

CCOS(=O)(=O)[O-].CC[n+]1ccn(C)c1 + CC#N
speed of sound [m/s]
Conditions | 293.15 K | 298.15 K | 303.15 K | 308.15 K | 313.15 K
x2 = 0 | 1693.1 | 1680.8 | 1668.5 | – | 1644.4
x2 = 0.0934 | – | 1670.3 | – | – | 1633.5
x2 = 0.1936 | 1667 | 1654.5 | 1641.9 | 1629.3 | 1616.8
x2 = 0.2906 | 1649.5 | 1639.7 | 1623.8 | 1610.9 | 1598.1
x2 = 0.397 | 1626.4 | 1613.3 | 1599.9 | 1586.6 | 1573.5
x2 = 0.4967 | 1592.4 | 1578.7 | 1564.7 | 1550.8 | 1537
x2 = 0.5938 | – | 1552.3 | – | 1523.5 | –
x2 = 0.7001 | – | – | – | 1474.1 | 1458.9
x2 = 0.7953 | 1464.6 | 1448.5 | 1432.3 | 1416 | 1399.8
x2 = 0.8951 | – | 1373.4 | – | 1337.9 | 1320.2
x2 = 0.9516 | 1343.4 | 1324.8 | – | 1287.1 | 1268.3

CC#N + CCCC[n+]1ccn(C)c1.N#C[S-]
x1 = 1
Conditions | speed of sound [m/s]
303.15 K | 1258.8
313.15 K | 1218.5

CC#N + CCOS(=O)(=O)[O-].CC[n+]1ccn(C)c1
x1 = 1
Conditions | speed of sound [m/s]
293.15 K | 1298.8
298.15 K | 1279
303.15 K | 1258.8
308.15 K | 1238.6
313.15 K | 1218.5
